Test results: US5719291A, “Cyclohexane derivatives” (Hoffmann-La Roche Inc., priority 1991, dated 1998)
Converted amounts (≈) assume the structure as drawn. Where a name gives a salt, the structure may show the parent alone. Read-outs that look alike come from different tables or passages of the source.

Columns and labels:
Candida albicans = assay: In vitro antifungal activity, IC80 (Method B); format: cell-based
Method: (§1) The in vitro antifungal activities of the representative compounds of the present invention shown in Table 1 and Table 2 were measured by determining the minimal inhibitory concentrations (MIC: Method A) or 80% growth inhibition concentration (IC80 : Method B) respectively. MIC is defined as the concentration of an antifungal at which growth of fungi is not observed and IC80 is the concentration where cell turbidity measured at OD630 is reduced by 80%.
(§2) Antifungal activities were determined by either method A or B (see below) using microtest plates according NCCLS with minor modifications (Galgiani et at., Antimicrob. Agents Chemother. 33, 731 (1989)).
(§3) (Method B) The medium for yeast was buffered to pH 7.0 with 0.25% K2 HPO4 in Yeast Nitrogen Base (Difco Lab.). For the filamentous fungi, 0.2% of low melting point agar was supplemented to the above medium. Inoculum size was 1×10^4 cells/ml, and incubation was carried out for 1-2 days at 27° C. Fluconazole (Pfizer) was used as reference.

C. neoformans = assay: In vitro antifungal activity, IC80 (Method B); format: cell-based; settings: Cryptococcus neoformans
Method: as §1, §2, §3

A. fumigatus = assay: In vitro antifungal activity, IC80 (Method B); format: cell-based; settings: Aspergillus fumigatus, read-out: Antifungal activity IC80
Method: as §1, §2, §3

[1] = Acute toxicity (LD50) by oral administration in mice; format: in vivo; settings: mouse, in vivo, read-out: LD50
[2] = pH 7, Candida albicans CY1002, 1×10^4 cells/ml, 1-2 days, 27° C., read-out: Antifungal activity IC80
[3] = pH 7, Candida albicans CY1005, 1×10^4 cells/ml, 1-2 days, 27° C., read-out: Antifungal activity IC80
[4] = pH 7, Candida albicans CY3003, 1×10^4 cells/ml, 1-2 days, 27° C., read-out: Antifungal activity IC80
[5] = pH 7, C. neoformans CY1057, 1×10^4 cells/ml, 1-2 days, 27° C., read-out: Antifungal activity IC80
[6] = pH 7, C. neoformans CY1059, 1×10^4 cells/ml, 1-2 days, 27° C., read-out: Antifungal activity IC80
[7] = A. fumigatus CF1003, 1×10^4 cells/ml, 1-2 days, 27° C., 0.2% agar
[8] = A. fumigatus CF1004, 1×10^4 cells/ml, 1-2 days, 27° C., 0.2% agar

CO[C@@H]1[C@@H](Cn2cncn2)[C@H](CCc2ccc3ccccc3c2)CCC1(C)C [Example 75, 1-[[(1R,2R,6R)-2-methoxy-3,3-dimethyl-6-(2-b-naphthylethyl)cyclohexyl]methyl]-1H,1,1,4-triazole]
IC80 (Candida albicans; [2]): 0.18 µg/mL (≈ 0.477 µM)
IC80 (Candida albicans; [3]): 0.2 µg/mL (≈ 0.53 µM)
IC80 (Candida albicans; [4]): 0.34 µg/mL (≈ 0.901 µM)
IC80 (C. neoformans; [5]): 0.19 µg/mL (≈ 0.503 µM)
IC80 (C. neoformans; [6]): 1.3 µg/mL (≈ 3.44 µM)
IC80 (A. fumigatus; [7]): > 200 µg/mL
IC80 (A. fumigatus; [8]): > 200 µg/mL

CCCCCCCCO[C@@H]1CCC(C)(C)[C@H](OC)[C@@H]1Cn1cncn1 [Example 69, 1-[[(1R,2R,6R)-2-methoxy-3,3-dimethyl-6-octyloxycyclohexyl]methyl]-1H-1,2,4-triazole]
LD50 [1]: > 500 mg/kg

CO[C@@H]1[C@@H](Cn2cncn2)[C@H](CCc2ccc(F)cc2F)CCC1(C)C [Example 80, 1-[[(1R,2R,6S)-6-(2,4-difluorophenethyl)-2-methoxy-3,3-dimethylcyclohexyl]methyl]-1H-1,2,4-triazole]
IC80 (Candida albicans; [2]): 0.35 µg/mL (≈ 0.963 µM)
IC80 (Candida albicans; [3]): 0.65 µg/mL (≈ 1.79 µM)
IC80 (Candida albicans; [4]): 0.19 µg/mL (≈ 0.523 µM)
IC80 (C. neoformans; [5]): 11 µg/mL (≈ 30.3 µM)
IC80 (C. neoformans; [6]): 12 µg/mL (≈ 33 µM)
IC80 (A. fumigatus; [7]): 93 µg/mL (≈ 256 µM)
IC80 (A. fumigatus; [8]): 40 µg/mL (≈ 110 µM)

CO[C@@H]1[C@@H](Cn2cncn2)[C@H](CCc2ccc3ccccc3n2)CCC1(C)C [Example 76, 1-[[(1R,2R,6S)-2-methoxy-3,3-dimethyl-6-(2-quinolin-2-ylethyl)cyclohexyl]methyl]-1H,1,2,4-triazole]
IC80 (Candida albicans; [2]): 0.38 µg/mL (≈ 1 µM)
IC80 (Candida albicans; [3]): 0.77 µg/mL (≈ 2.03 µM)
IC80 (Candida albicans; [4]): 0.36 µg/mL (≈ 0.951 µM)
IC80 (C. neoformans; [5]): 10 µg/mL (≈ 26.4 µM)
IC80 (C. neoformans; [6]): 30 µg/mL (≈ 79.3 µM)
IC80 (A. fumigatus; [7]): 30 µg/mL (≈ 79.3 µM)
IC80 (A. fumigatus; [8]): 36 µg/mL (≈ 95.1 µM)

CCc1ccc(OC[C@@H]2CCC(C)(C)[C@H](OC)[C@H]2Cn2cncn2)cc1 [Example 83, 1-[[(1R,2R,6R)-2-methoxy-3,3-dimethyl-6-(4-ethylphenoxy)methyl]methyl]-1H,1,2,4-triazole]
IC80 (Candida albicans; [2]): 0.31 µg/mL (≈ 0.867 µM)
IC80 (Candida albicans; [3]): 0.24 µg/mL (≈ 0.671 µM)
IC80 (Candida albicans; [4]): 0.59 µg/mL (≈ 1.65 µM)
IC80 (C. neoformans; [5]): 0.21 µg/mL (≈ 0.587 µM)
IC80 (C. neoformans; [6]): 0.19 µg/mL (≈ 0.531 µM)
IC80 (A. fumigatus; [7]): > 200 µg/mL
IC80 (A. fumigatus; [8]): > 200 µg/mL

CO[C@@H]1[C@@H](Cn2cncn2)[C@H](CCc2ccc(OC(F)(F)F)cc2)CCC1(C)C [Example 78, 1-[[(1R,2R,6R)-6-(p-trifluoromethoxyphenethyl)-2-methoxy-3,3-dimethylcyclohexyl]methyl]-1H-1,2,4-triazole]
IC80 (Candida albicans; [2]): 0.03 µg/mL (≈ 0.0729 µM)
IC80 (Candida albicans; [3]): 0.093 µg/mL (≈ 0.226 µM)
IC80 (Candida albicans; [4]): 0.071 µg/mL (≈ 0.173 µM)
IC80 (C. neoformans; [5]): 8.4 µg/mL (≈ 20.4 µM)
IC80 (C. neoformans; [6]): 21 µg/mL (≈ 51 µM)
IC80 (A. fumigatus; [7]): > 200 µg/mL
IC80 (A. fumigatus; [8]): > 200 µg/mL

COc1ccc(CC[C@@H]2CCC(C)(C)[C@H](OC)[C@H]2NC(=O)CN)cc1 [Example 55, (1R,2S,3S)-2-[(aminoacetyl)amino]-4-47dimethyl-3-methoxy-1-[2-(4-methoxyphenyl)ethyl]cyclohexane trifluoroacetic acid salt]
IC80 (Candida albicans; [2]): 49 µg/mL
IC80 (Candida albicans; [3]): 69 µg/mL
IC80 (Candida albicans; [4]): 50 µg/mL
IC80 (C. neoformans; [5]): 170 µg/mL
IC80 (C. neoformans; [6]): 150 µg/mL
IC80 (A. fumigatus; [7]): > 200 µg/mL
IC80 (A. fumigatus; [8]): > 200 µg/mL

CCCCCCC/C=C/[C@@H]1OC[C@H](C)C=C1Cn1ccnc1 [Example 60, 1-[[(2S,5R)-5,6-dihydro-5-methyl-2-[(E)-1-nonenyl]-2H-pyran-3-yl]methyl]-1H-imidazole]
LD50 [1]: > 500 mg/kg

CO[C@@H]1[C@@H](Cn2cncn2)[C@H](CCc2ccc(N(C)C)cc2)CCC1(C)C [Example 71]
IC80 (Candida albicans; [2]): 0.03 µg/mL (≈ 0.081 µM)
IC80 (Candida albicans; [3]): 0.094 µg/mL (≈ 0.254 µM)
IC80 (Candida albicans; [4]): 0.036 µg/mL (≈ 0.0972 µM)
IC80 (C. neoformans; [5]): 1.2 µg/mL (≈ 3.24 µM)
IC80 (C. neoformans; [6]): 1.9 µg/mL (≈ 5.13 µM)
IC80 (A. fumigatus; [7]): 32 µg/mL (≈ 86.4 µM)
IC80 (A. fumigatus; [8]): 37 µg/mL (≈ 99.9 µM)

CO[C@@H]1[C@@H](Cn2cncn2)[C@H](CCc2ccc(C(F)(F)F)cc2)CCC1(C)C [Example 77]
IC80 (Candida albicans; [2]): 0.16 µg/mL (≈ 0.405 µM)
IC80 (Candida albicans; [3]): 0.18 µg/mL (≈ 0.455 µM)
IC80 (Candida albicans; [4]): 0.093 µg/mL (≈ 0.235 µM)
IC80 (C. neoformans; [5]): 0.39 µg/mL (≈ 0.986 µM)
IC80 (C. neoformans; [6]): 3.2 µg/mL (≈ 8.09 µM)
IC80 (A. fumigatus; [7]): > 200 µg/mL
IC80 (A. fumigatus; [8]): > 200 µg/mL

CCCCCCCCO[C@@H]1CCC(C)(C)[C@H](OC)[C@H]1NC(=O)CN [Example 54, (1R,2S,3S)-2-[(aminoacetyl)amino-4,4-dimethyl-3-methoxy-1-octyloxycyclohexanetrifluoroacetic acid salt]
IC80 (Candida albicans; [2]): 18 µg/mL
IC80 (Candida albicans; [3]): 12 µg/mL
IC80 (Candida albicans; [4]): 18 µg/mL
IC80 (C. neoformans; [5]): 46 µg/mL
IC80 (C. neoformans; [6]): 47 µg/mL
IC80 (A. fumigatus; [7]): 150 µg/mL
IC80 (A. fumigatus; [8]): 140 µg/mL

COc1ccc(CC[C@@H]2CCC(C)(C)[C@H](OC)[C@H]2Cn2cncn2)cc1 [Example 79, 1-[[(1R,2R,6R)-2-methoxy-6-(p-methoxyphenethyl)-3,3-dimethylcyclohexyl]methyl]-1H,1,2,4-triazole]
IC80 (Candida albicans; [2]): 0.023 µg/mL (≈ 0.0643 µM)
IC80 (Candida albicans; [3]): 0.024 µg/mL (≈ 0.0671 µM)
IC80 (Candida albicans; [4]): 0.02 µg/mL (≈ 0.0559 µM)
IC80 (C. neoformans; [5]): 0.86 µg/mL (≈ 2.41 µM)
IC80 (C. neoformans; [6]): 4.7 µg/mL (≈ 13.1 µM)
IC80 (A. fumigatus; [7]): > 200 µg/mL
IC80 (A. fumigatus; [8]): > 200 µg/mL

CO[C@@H]1[C@@H](Cn2cncn2)[C@H](CCc2ccc(Cl)cc2)CCC1(C)C [Example 72, 1-[[(1R,2R,6R)-6-[2-(4-chlorophenyl)ethyl]-2-methoxy-3,3-dimethylcyclohexyl]methyl]-1H-1,2,4-triazole]
IC80 (Candida albicans; [2]): 0.095 µg/mL (≈ 0.262 µM)
IC80 (Candida albicans; [3]): 0.094 µg/mL (≈ 0.26 µM)
IC80 (Candida albicans; [4]): 0.06 µg/mL (≈ 0.166 µM)
IC80 (C. neoformans; [5]): 1.3 µg/mL (≈ 3.59 µM)
IC80 (C. neoformans; [6]): 4.8 µg/mL (≈ 13.3 µM)
IC80 (A. fumigatus; [7]): 14 µg/mL (≈ 38.7 µM)
IC80 (A. fumigatus; [8]): 12 µg/mL (≈ 33.2 µM)

OC(Cn1cncn1)(Cn1cncn1)c1ccc(F)cc1F [FCZ, Fluconazole, reference compound]
IC80 (Candida albicans; pH 7, read-out: Antifungal activity IC80, Candida albicans CY1002, 1×10^4 cells/ml, 1-2 days, 27° C.): 1.1 µg/mL (≈ 3.59 µM)
IC80 (Candida albicans; pH 7, read-out: Antifungal activity IC80, Candida albicans CY1005, 1×10^4 cells/ml, 1-2 days, 27° C.): 1.2 µg/mL (≈ 3.92 µM)
IC80 (Candida albicans; pH 7, read-out: Antifungal activity IC80, Candida albicans CY3003, 1×10^4 cells/ml, 1-2 days, 27° C.): 1 µg/mL (≈ 3.27 µM)
IC80 (C. neoformans; pH 7, read-out: Antifungal activity IC80, C. neoformans CY1057, 1×10^4 cells/ml, 1-2 days, 27° C.): 5.2 µg/mL (≈ 17 µM)
IC80 (C. neoformans; pH 7, read-out: Antifungal activity IC80, C. neoformans CY1059, 1×10^4 cells/ml, 1-2 days, 27° C.): 8.6 µg/mL (≈ 28.1 µM)
IC80 (A. fumigatus): 150 µg/mL (≈ 490 µM)

CCc1ccc(CC[C@@H]2CCC(C)(C)[C@H](OC)[C@H]2Cn2cncn2)cc1 [Example 81, 1-[[(1R,2R,6R)-6-(4-ethylphenyl)ethyl-2-methoxy-3,3-dimethyl-cyclohexyl]methyl]-1H-1,2,4-triazole]
IC80 (Candida albicans; [2]): 0.0075 µg/mL (≈ 0.0211 µM)
IC80 (Candida albicans; [3]): 0.025 µg/mL (≈ 0.0703 µM)
IC80 (Candida albicans; [4]): 0.0042 µg/mL (≈ 0.0118 µM)
IC80 (C. neoformans; [5]): 1.5 µg/mL (≈ 4.22 µM)
IC80 (C. neoformans; [6]): 1.5 µg/mL (≈ 4.22 µM)
IC80 (A. fumigatus; [7]): > 200 µg/mL
IC80 (A. fumigatus; [8]): > 200 µg/mL

CO[C@@H]1[C@@H](Cn2cncn2)[C@H](CSc2ccc(Cl)cc2)CCC1(C)C [Example 73, 1-[[(1R,2R,6R)-6-[(4-chlorophenylthio)methyl]-2-methoxy-3,3-dimethylcyclohexyl]methyl]-1H-1,2,4-triazole]
IC80 (Candida albicans; [2]): 0.008 µg/mL (≈ 0.0211 µM)
IC80 (Candida albicans; [3]): 0.011 µg/mL (≈ 0.029 µM)
IC80 (Candida albicans; [4]): 0.02 µg/mL (≈ 0.0526 µM)
IC80 (C. neoformans; [5]): 5.8 µg/mL (≈ 15.3 µM)
IC80 (C. neoformans; [6]): 6.1 µg/mL (≈ 16.1 µM)
IC80 (A. fumigatus; [7]): 23 µg/mL (≈ 60.5 µM)
IC80 (A. fumigatus; [8]): 23 µg/mL (≈ 60.5 µM)

CO[C@@H]1[C@@H](Cn2cncn2)[C@H](CCc2ccc(N3CCCC3)cc2)CCC1(C)C [Example 82, 1-[[(1R,2R,6R)-2-methoxy-3,3-dimethyl-6-[2-(p-pyrrolidinophenyl)ethyl]cyclohexyl]methyl]-1H,1,2,4-triazole]
IC80 (Candida albicans; [2]): 0.15 µg/mL (≈ 0.378 µM)
IC80 (Candida albicans; [3]): 0.35 µg/mL (≈ 0.883 µM)
IC80 (Candida albicans; [4]): 0.17 µg/mL (≈ 0.429 µM)
IC80 (C. neoformans; [5]): > 200 µg/mL
IC80 (C. neoformans; [6]): > 200 µg/mL
IC80 (A. fumigatus; [7]): > 200 µg/mL
IC80 (A. fumigatus; [8]): > 200 µg/mL
